3 compounds from US20240115589A1, “PHARMACEUTICAL COMPOSITION FOR PREVENTING CYTOKINE STORM” (KINKI UNIVERSITY, priority 2021, published 2024) can be followed below.

One assay deals with IL-6 mRNA. Kind of assay: LPS-stimulated IL-6 mRNA expression in mouse B cells (real time PCR). Particulars: then 10 μg/mL LPS 4 h, vs LPS-treated group. It is filed as cell-based. Here is the method: (§1) Mouse B cells were pre-cultured with RPMI1640 medium for 1 day. After incubation, mouse B cells were treated with 10 μM mangiferin 8a, 10 μM norathyriol, 1 μM M9, and 1 μM M14 for 1 day. Then, 10 μg/mL LPS was added to mouse B cells and cultured for 4 h. After incubation, cells were collected, RNA was extracted, and TNFα mRNA expression was measured by real time PCR.
The inhibitory effect of compounds on IL-6 mRNA expression involved in cytokine storm was examined using mouse B cells. The experimental procedure is the same as in Example 1.
(§2) For controls, only 0.5% DMSO (diluted in PBS) used to dissolve the compounds was added. 10 μg/mL LPS administered is called the LPS-treated group, LPS and mangiferin 8a administered in combination is called the mangiferin 8a-treated group, LPS and norathyriol administered in combination is called the norathyriol group, LPS and M9 administered in combination is called the M9-treated group, LPS and M14 administered in combination is called the M14-treated group, respectively.
On the technique in general: Quantitative PCR measures a nucleic acid by following its amplification.

The next assay concerns male C57BL/6J. Kind of assay: Survival rate of mice treated with compound and LPS (lethality in cytokine storm). It is filed as in vivo. The note with it: C57BL/6J mice, 25 mg/kg LPS i.p. 5 min later, day 2, compared to LPS group. The method, then: Six-week-old male C57BL/6J (SHIMIZU Laboratory Supplies Co., Ltd.) were orally administered 50 mg/kg mangiferin 8a, 100 mg/kg norathyriol, 50 mg/kg M9, and 50 mg/kg M14. Five minutes later, 25 mg/kg LPS was administered intraperitoneally. The day of administration was set as day 0, and the survival rate was measured on day 2.
Those not receiving the compound and LPS are referred to as the control group, those receiving 25 mg/kg LPS are referred to as the LPS group, those receiving 50 mg/kg mangiferin 8a and 25 mg/kg LPS are referred to as the mangiferin 8a-treated group, those receiving 100 mg/kg norathyriol and 25 mg/kg LPS are referred to as the norathyriol-treated group, those receiving 50 mg/kg M9 and 25 mg/kg LPS are referred to as the M9-treated group, and those receiving 50 mg/kg M14 and 25 mg/kg LPS are referred to as the M14-treated group.
Referring to FIG. 9, the horizontal axis indicates compound treatment, and the vertical axis indicates survival rate (%).

Assay [1] relates to IL-6. Kind of assay: Serum IL-6 production in mice treated with compound and LPS (ELISA). The note with it: C57BL/6J mice, 25 mg/kg LPS i.p., serum 2 hours after LPS, control 2.75, LPS alone 20.1 ng/mL. It is filed as in vivo. Here is the method: Six-week-old male C57BL/6J (Shimizu experimental material) was orally administered 100 mg/kg norathyriol, 50 mg/kg M9, and 50 mg/kg M14. Five minutes later, 25 mg/kg LPS was administered intraperitoneally. Serum was collected from mice 2 hours after LPS administration, and the amount of IL-6 production involved in the cytokine storm was measured by enzyme-linked immunosorbent assay (ELISA). This measurement was performed using a mouse IL-6 ELISA kit (R&D).
(§3) Those not receiving the compound and LPS are referred to as the control group, those receiving 25 mg/kg LPS are referred to as the LPS group, those receiving 100 mg/kg norathyriol and 25 mg/kg LPS are referred to as the norathyriol-treated group, those receiving 50 mg/kg M9 and 25 mg/kg LPS are referred to as the M9-treated group, and those receiving 50 mg/kg M14 and 25 mg/kg LPS are referred to as the M14-treated group.

In another assay the test system is TNFα mRNA. Kind of assay: LPS-stimulated TNFα mRNA expression in mouse B cells (real time PCR). It is filed as cell-based. The note with it: then 10 μg/mL LPS 4 h, vs LPS-treated group. Here is the method: The inhibitory effect of compounds on TNFα mRNA expression involved in cytokine storm was examined using mouse B cells.
as §1, §2

Assay [2] relates to IL-6. Kind of assay: LPS-stimulated IL-6 production in mouse B cells (ELISA). Format: cell-based. The note with it: culture supernatant, then 10 μg/mL LPS 2 days, control 9.46, LPS alone 246.13 pg/mL. Here is the method:
The inhibitory effect of compounds on IL-6 production involved in cytokine storm was examined using mouse B cells.
Mouse B cells were pre-cultured with RPMI1640 medium for 1 day. After incubation, mouse B cells were treated with 10 μM mangiferin 8a, 10 μM norathyriol, 1 μM M9, and 1 μM M14 for 1 day. Then, 10 μg/mL LPS was added to mouse B cells and cultured for 2 days. After incubation, the culture supernatant was collected and IL-6 production was determined by enzyme-linked immunosorbent assay (ELISA). This measurement was performed using a mouse IL-6 ELISAkit (R&D).
In general terms: An ELISA detects its analyte on a solid surface through an enzyme-linked reagent.

Assay [3] relates to IL-6. Kind of assay: LPS-stimulated IL-6 production in mouse macrophages (ELISA). Format: cell-based. The note with it: culture supernatant, then 10 μg/mL LPS 2 days, control 13.13, LPS alone 321.13 pg/mL. Here is the method: The inhibitory effect of compounds on IL-6 production involved in cytokine storm was examined using mouse macrophages.
Mouse macrophages were pre-cultured with RPMI1640 medium for 1 day. After incubation, mouse macrophages were treated with 10 μM mangiferin 8a, 10 μM norathyriol, 1 μM M9, and 1 μM M14 for 1 day. Then, 10 μg/mL LPS was added to mouse macrophages and cultured for 2 days. After incubation, the culture supernatant was collected and IL-6 production was determined by enzyme-linked immunosorbent assay (ELISA). This measurement was performed using a mouse IL-6 ELISA kit (R&D).

In assay [4] the test system is TNFα. Kind of assay: Serum TNFα production in mice treated with compound and LPS (ELISA). It is filed as in vivo. The note with it: C57BL/6J mice, 25 mg/kg LPS i.p., serum 2 hours after LPS, control 1.55, LPS alone 10.28 ng/mL. The method, then:
Six-week-old male C57BL/6J (Shimizu experimental material) was orally administered 100 mg/kg norathyriol, 50 mg/kg M9, and 50 mg/kg M14. Five minutes later, 25 mg/kg LPS was administered intraperitoneally. Serum was collected from mice 2 hours after LPS administration, and the amount of TNFα production involved in the cytokine storm was measured by enzyme-linked immunosorbent assay (ELISA). This measurement was performed using a mouse TNFα ELISA kit (R&D).
as §3

Assay [5] relates to TNFα. Kind of assay: LPS-stimulated TNFα production in mouse B cells (ELISA). Format: cell-based. Particulars: culture supernatant, then 10 μg/mL LPS 2 days, control 15.13, LPS alone 296.31 pg/mL. Here is the method: The inhibitory effect of compounds on TNFα production involved in cytokine storm was examined using mouse B cells.
Mouse B cells were pre-cultured with RPMI1640 medium for 1 day. After incubation, mouse B cells were treated with 10 μM mangiferin 8a, 10 μM norathyriol, 1 μM M9, and 1 μM M14 for 1 day. Then, 10 μg/mL LPS was added to mouse B cells and cultured for 2 days. After incubation, the culture supernatant was collected and TNFα production was determined by enzyme-linked immunosorbent assay (ELISA). This measurement was performed using a mouse TNFα ELISA kit (R&D).

As to `O=c1c2cc(O)c(O)cc2oc2cc(O)cc(O)c12` [norathyriol, 1,3,6,7-tetrahydroxyxanthone], in the assay with IL-6 mRNA (10 μM compound 1 day), the “LPS-induced IL-6 mRNA expression (ratio to GAPDH mRNA)” value is recorded as “decrease in LPS-induced IL-6 mRNA expression”. Moreover, the survival rate result in the assay with male C57BL/6J (100 mg/kg oral) was “significantly reduced the decrease in survival”. For the same compound, the “IL-6 production in serum” value in the assay on IL-6 [1] (100 mg/kg oral) is on record as 11.37 ng/mL. Besides, the “LPS-induced TNFα mRNA expression (ratio to GAPDH mRNA)” value with TNFα mRNA (10 μM compound 1 day) is reported as “decrease in LPS-induced TNFα mRNA expression”. Also, the IL-6 production in the assay on IL-6 [2] (10 μM compound 1 day) stood at 56.13 pg/mL; with IL-6 [3] (10 μM compound 1 day), 64.13 pg/mL. Further, the “TNFα production in serum” value in the assay on TNFα [4] (100 mg/kg oral) is 2.71 ng/mL. Besides, the TNFα production with TNFα [5] (10 μM compound 1 day) was determined as 64.13 pg/mL.
Turning to `CCCC(=O)OC[C@H]1O[C@@H](c2c(O)cc3oc4cc(O)c(O)cc4c(=O)c3c2O)[C@H](OC(=O)CCC)[C@@H](OC(=O)CCC)[C@@H]1OC(=O)CCC` [M14, 2′,3′,4′,6′-tetra-O-butyrylmangiferin], the “LPS-induced IL-6 mRNA expression (ratio to GAPDH mRNA)” value with IL-6 mRNA (1 μM compound 1 day) is recorded as “decrease in LPS-induced IL-6 mRNA expression”. Besides, the survival rate result in the assay on male C57BL/6J (50 mg/kg oral) is on record as “significantly reduced the decrease in survival”. Besides, in the assay with IL-6 [1] (50 mg/kg oral), the “IL-6 production in serum” value is 14.26 ng/mL. In the assay on TNFα mRNA (1 μM compound 1 day), the “LPS-induced TNFα mRNA expression (ratio to GAPDH mRNA)” value is “decrease in LPS-induced TNFα mRNA expression”. The IL-6 production in the assay on IL-6 [2] (1 μM compound 1 day) and in the assay on IL-6 [3] (1 μM compound 1 day) was 45.13 pg/mL throughout. The “TNFα production in serum” value in the assay on TNFα [4] (50 mg/kg oral) turned out to be 5.2 ng/mL. In the assay with TNFα [5] (1 μM compound 1 day), this compound came in with a TNFα production of 46.13 pg/mL.
`CCC(=O)OC[C@H]1O[C@@H](c2c(O)cc3oc4cc(O)c(O)cc4c(=O)c3c2O)[C@H](OC(=O)CC)[C@@H](OC(=O)CC)[C@@H]1OC(=O)CC` [M9, 2′,3′,4′,6′-tetra-O-propionylmangiferin]: the “LPS-induced IL-6 mRNA expression (ratio to GAPDH mRNA)” value with IL-6 mRNA (1 μM compound 1 day) is recorded as “decrease in LPS-induced IL-6 mRNA expression”. Also, in the assay on male C57BL/6J (50 mg/kg oral), the survival rate entry is recorded as “significantly reduced the decrease in survival”. Moreover, the “IL-6 production in serum” value in the assay with IL-6 [1] (50 mg/kg oral) is listed as 15.15 ng/mL. Further, the “LPS-induced TNFα mRNA expression (ratio to GAPDH mRNA)” value in the assay on TNFα mRNA (1 μM compound 1 day) is “decrease in LPS-induced TNFα mRNA expression”. For the same compound, the IL-6 production with IL-6 [2] (1 μM compound 1 day) came out at 45.12 pg/mL; with IL-6 [3] (1 μM compound 1 day), 49.46 pg/mL. The “TNFα production in serum” value in the assay on TNFα [4] (50 mg/kg oral) was determined as 5.68 ng/mL. Moreover, the TNFα production with TNFα [5] (1 μM compound 1 day) is 55.13 pg/mL.
